Reference: patent US8916604B2, “Compositions and methods for epigenetic modification of nucleic acid sequences” (Rutgers, The State University of New Jersey, priority 2011, dated 2014)

Columns and labels:
[1] = tested on: TRAMP mice; assay: DIM-supplemented diet, prostate tumorigenesis in TRAMP males; format: in vivo, mouse; details: for Incidence of palpable tumor: sacrificed at 24 weeks, control 6/19; for Incidence of lymph nodes metastasis: control 5/19; for histological incidence of HG-PIN: control 54%
Method: Female hemizygous C57BL/TGN TRAMP mice, line PB Tag 8247NG, and male C57BL/6 mice were purchased from The Jackson Laboratory (Bar Harbor, Me., U.S.A.). The animals were bred on the same genetic background C57BL/6 and maintained in the Laboratory Animal Service facility at Rutgers University. Housing and care of the animals was performed in accordance with the guidelines established by the University's Animal Research Committee consistent with the NIH Guidelines for the Care and Use of Laboratory Animals, Transgenic males for the studies were obtained as [TRAMP×C57BL/6] F1 or [TRAMP×C57BL/6] […] Throughout the experiment the animals were housed in a temperature-control led room (68-72° F.) with a 12 h light dark cycle, at a relative humidity of 45% to 55%.
DIM was obtained from Sigma-Aldrich (St. Louis, Mo., U.S.A.). MN-76A diets containing 1% DIM were prepared by Research Diets Inc. (New Brunswick, N.J., U.S.A.) and stored at −20° C. The dose was chosen based in part on studies reported previously Anderton et al., Drug Metab Dispos. 2004; 32: 632-8; and Xue et al., J Nutr Biochem. 2008; 19: 336-44). In our present study, 1% DIM was well-tolerated with these TRAMP mice. The control TRAMP males (n=19) received A1N-76A diets throughout the experiment while the treated TRAMP males received 1% DIM diet starting from eight weeks of age (n=9) as Group 1 (D-G1) and Group 2 (D-G2) starting from twelve weeks of age (n=8) (FIG. 12A). Fresh diets were added to the cages twice weekly.
TRAMP males were weighed weekly and the overall health of the animals was monitored on a regular basis. All mice were sacrificed at the age of 24 weeks by carbon dioxide euthanasia and the genitourinary apparatus (GU) consisting of the seminal vesicles, prostate, and bladder were isolated for further analyses (FIG. 12B).
The dorso-lateral prostate (n=5) was excised and fixed in 10% formalin for 24 b and then transferred to 70% ethanol for 24 h. After dehydration processing, and embedding with paraffin, tissue sections ([…]) were cut from paraffin embedded prostate tissue and mounted on slides. The sections were stained with Hematoxylin and Eosin (H&E) to examine any neoplastic changes. Sections were evaluated by a histopathologist in a blinded fashion to classify prostatic intra-epithelial neoplasia (PIN) lesion, as we have reported previously (8, 12, 13, 30), Lesions were classified as PIN I, PIN II, PIN III, and PIN IV (Park et al., Am J Pathol. 2002; 161: 727-35). For ease of classification, PIN I and PIN II were combined as low grade PIN (LG-PIN) while PIN III and PIN IV were combined as high grade PIN (HG-PIN) as we have performed previously (8, 12, 30, 31).

[2] = tested on: apoptotic cells in the dorso-lateral prostates; assay: IHC staining of TRAMP prostate tissue, apoptosis (TUNEL); format: in vivo, mouse; details: D-G1 and D-G2 vs control, p<0.001
Method: Sections (4 μm) were cut from the paraffin embedded prostate tissue and mounted on glass slides. The slides Were deparafinized in xylene and antigen unmasking was performed by applying proteinase K digestion directly on the slides for 15 min. Endogenous peroxidase was blocked by incubating in 3% […] for 5 min, and ApopTag Plus Peroxidase In Situ Apoptosis Detection Kit (Millipore, Temecula, Calif., U.S.A.) was used to detect apoptotic cells. For detection of proliferative cells, monoclonal mouse anti-proliferating cell nuclear antigen (PCNA) antibody (Clone PC10, 1:50, Dako North America, Carpinteria, Calif., U.S.A.) was used (12). The staining was performed following as the manufacturer's protocols. Anti-5-methylcytosine (5-MC) mouse monoclone antibody (Clone 162 33 D3, 1:50, EMD Chemicals, Philadelphia, Pa., U.S.A.) was used to detect genome-wide methylated DNA. […] Quantitation of IHC staining was done using the Aperio ScanScope® GL system according to the manufactures protocol (Aperio Technologies Inc., Vista, Calif., U.S.A.). […] The Aperio ImageScopoe software (v 10.1.3.2028) allowed the unbiased quantification and quantitative analysis of the IHC staining of biomarkers of prostate tumor samples obtained from untreated control versus the treated TRAMP mice.

[3] = oral, 2 mg/kg/day; cited from earlier work
[4] = tested on: first five CpGs of the Nrf2 gene promoter; assay: Bisulfite genomic sequencing of TRAMP prostate tissues; format: in vivo, mouse; details: control 98% methylation
Method: Genomic DNA was isolated from the control or DIM treated TRAMP C1 cells and TRAMP dorso-lateral prostate tissues collected from control and DIM treated groups pooled and homogenized using the DNeasy tissue kit (Qiagen, Valencia, Calif., U.S.A.). The genomic DNAs were extracted and subjected to bisulfite conversion carried out using 750 ng of genomic DNA and applying to EZ DNA Methylation Gold Kits (Zymo Research Corp., Orange, Calif., U.S.A.) following the manufacturer's instructions. The converted DNA was amplified by PCR utilizing Platinum PCR SuperMix (Invitrogen, Grand Island, N.Y., U.S.A.) with a set of specific primers, forward: 5′-AGTTATGAAGTAGTAGTAAAAA-3′ (SEQ ID NO: 37) and reverse: 5′-AATATAATCTCATAAAACCCCAC-3 (SEQ ID NO: 38), amplifying the first five CpGs located between −1266 and −1086 of the promoter region of Nrf2 with the translation initiation site defined as +1 (14, 20). Gel extraction using Qiaquick™ gel extraction kit (Qiagen, Valencia, Calif., U.S.A.) were used to purify the PCR products, then cloned into pCR4 TOPO vector using a TOPO™ TA Cloning kit (Invitrogen, Grand Island, N.Y., U.S.A.), Plasmids DNA from at least twenty colonies per for treatment were prepared using QIAprep Spin Miniprep Kit (Qiagen, Valencia Calif., U.S.A.) and sequenced (Genwiz, Piscataway, N.J., U.S.A.).

[5] = D-G2: 1% DIM diet from 12 weeks of age, p<0.05

## c1ccc2c(Cc3c[nH]c4ccccc34)c[nH]c2c1 [DIM, 3,3′-diindolylmethane]
[1]; D-G1: 1% DIM diet from 8 weeks of age
  Incidence of palpable tumor: 1/9^a,
[1]; D-G1: 1% DIM diet from 8 weeks of age, p<0.05
  Incidence of lymph nodes metastasis: 0/9^b, #
[1]; D-G1, control 46%
  histological incidence of carcinoma: 20%
[1]; D-G1
  histological incidence of HG-PIN: 20%
[1]; D-G1 and D-G2 vs non-treated control, p<0.05
  wet genitourinary apparatus (GU) weight: statistically significant decrease
[1]; D-G2
  histological incidence of LG-PIN: 20%
  histological incidence of carcinoma: no carcinoma
  histological incidence of HG-PIN: 80%
[1]; [5]
  Incidence of palpable tumor: 0/8^a, *
  Incidence of lymph nodes metastasis: 0/8^b, #
[1]; DIM-treated mice overall vs 26.3% in control
  incidence of lymph node metastasis: 0%
[1]; DIM-treated mice overall vs 31.6% in control
  percentage of palpable tumor: 5.8%
[2]
  percent of apoptotic cells: significantly higher
[3]
  tolerability: well tolerated with no significant toxicity
[4]; D-G1
  methylation of the first five CpGs of Nrf2 promoter: 37.6%
[4]; D-G2
  methylation of the first five CpGs of Nrf2 promoter: 54.4%
